Experimental data published in US20250170248A1, “SMARCA DEGRADERS AND USES THEREOF” (Kymera Therapeutics, Inc., priority 2021, published 2025).

Columns and labels:
Type in all cases: cell-based
SMARCA2 [1] = biological target: T1, SMARCA2 (Homo sapiens, UniProt P51531); test: MSD SMARCA2 degradation in A549 cell line; settings: for Dmax: A549, A549 cells; for Dmax / DC50: 24 h; for DC50 / SMARCA2 MSD A549 degradation 24 h: Average Dmax %: A549 cells; for DC50: read-out: SMARCA2 MSD A549 degradation 24 h: Average external-Abs DC50
T1 sequence (P51531 whole entry): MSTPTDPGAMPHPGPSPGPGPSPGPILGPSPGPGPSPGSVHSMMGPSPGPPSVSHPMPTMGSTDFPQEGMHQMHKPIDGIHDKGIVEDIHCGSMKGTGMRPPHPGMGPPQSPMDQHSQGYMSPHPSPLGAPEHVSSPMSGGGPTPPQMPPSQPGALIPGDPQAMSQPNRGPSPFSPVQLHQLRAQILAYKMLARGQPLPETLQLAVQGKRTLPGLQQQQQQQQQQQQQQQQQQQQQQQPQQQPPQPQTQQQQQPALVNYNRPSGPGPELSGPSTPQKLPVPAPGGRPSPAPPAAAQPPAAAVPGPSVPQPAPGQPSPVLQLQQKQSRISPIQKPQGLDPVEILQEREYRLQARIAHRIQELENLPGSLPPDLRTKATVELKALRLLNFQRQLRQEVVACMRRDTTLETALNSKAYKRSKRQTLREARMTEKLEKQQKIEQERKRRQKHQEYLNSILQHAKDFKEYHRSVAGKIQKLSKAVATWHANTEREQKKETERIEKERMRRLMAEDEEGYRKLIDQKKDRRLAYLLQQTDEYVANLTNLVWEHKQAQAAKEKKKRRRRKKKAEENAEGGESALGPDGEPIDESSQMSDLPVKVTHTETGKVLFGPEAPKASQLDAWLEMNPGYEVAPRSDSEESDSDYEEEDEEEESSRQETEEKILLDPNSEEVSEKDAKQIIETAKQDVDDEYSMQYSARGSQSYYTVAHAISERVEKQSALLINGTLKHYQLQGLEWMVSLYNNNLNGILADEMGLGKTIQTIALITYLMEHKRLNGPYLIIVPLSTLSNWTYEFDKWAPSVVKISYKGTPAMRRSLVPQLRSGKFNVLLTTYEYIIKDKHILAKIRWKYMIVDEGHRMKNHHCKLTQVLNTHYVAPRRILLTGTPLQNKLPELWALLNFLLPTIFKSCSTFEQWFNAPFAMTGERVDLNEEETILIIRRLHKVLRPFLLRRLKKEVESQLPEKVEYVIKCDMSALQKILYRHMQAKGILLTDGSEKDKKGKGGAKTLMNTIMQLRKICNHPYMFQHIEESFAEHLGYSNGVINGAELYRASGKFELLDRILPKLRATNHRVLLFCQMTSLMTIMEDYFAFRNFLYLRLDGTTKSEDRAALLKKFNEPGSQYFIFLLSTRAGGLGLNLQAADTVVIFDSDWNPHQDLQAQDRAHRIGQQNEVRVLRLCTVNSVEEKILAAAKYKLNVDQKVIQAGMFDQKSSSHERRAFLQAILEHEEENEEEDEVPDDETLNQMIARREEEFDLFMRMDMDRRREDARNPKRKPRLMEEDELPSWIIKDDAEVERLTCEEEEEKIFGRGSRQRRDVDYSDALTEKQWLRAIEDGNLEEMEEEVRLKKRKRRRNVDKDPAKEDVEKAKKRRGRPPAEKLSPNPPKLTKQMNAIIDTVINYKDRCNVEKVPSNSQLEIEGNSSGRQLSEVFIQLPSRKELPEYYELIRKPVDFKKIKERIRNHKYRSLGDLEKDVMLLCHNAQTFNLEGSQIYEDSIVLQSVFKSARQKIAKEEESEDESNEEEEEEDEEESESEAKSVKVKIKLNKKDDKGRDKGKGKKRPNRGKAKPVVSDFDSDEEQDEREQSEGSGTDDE
Protocol: Example 10. MSD SMARCA2 Degradation in A549 Cell Line
Cells were seeded into 96-well plates (A549 cells: 2×10^4 cells/well/100 ul media) and incubated overnight. The next day, 200 nL compound were added into the intermediate plate with Echo (Labcyte 550) from source plate containing a 3-fold serial dilution from top concentration of 1 mM. The culture medium was changed with 8 0ul of fresh medium and 80 μL of 2× compound solution was added into the well to make a final concentration of 1000 nM, 333.3 nM, 111.1 nM, 37.04 nM, 12.35 nM, 4.115 nM, 1.372 nM, 0.457 nM, 0.152 nM and 0 nM (DMSO). The wells were mixed and then incubated for 24 hours. The media was aspirated from the cultures and 60 ul pre-chilled PIPA lysis buffer (Boston BioProducts BP-115D) with protease/phosphatase inhibitor (Roche 05892791001/Roche 04906837001) was added into the well to lyze the cells for 20 minutes at 4° C. The MSD plate (L15XA) was coated with 40 uL cell lysate and incubated at 4° C. overnight. The next day, the plate was washed three times with TBST (CST #9997S), 150 ul/well. The MSD plates was blocked with 150 ul blocking buffer per well and shaked for 1 hr at RT, 600 rpm. The blocking buffer was 3% Blocker A (MSD, R93BA-4) in TBST. The MSD plate was washed three times with 150 uL/well of TBST and 25 ul/well of detection antibody (Rabbit anti-SMARCA2/BRM antibody, 100 μg/mL, ab223735) was added at final concentration of 1 μg/mL diluted in 1% Blocking buffer and shaken for 1 hour at RT, 600 rpm. The MSD plate was washed three times with 150 ul/well of TBST and 25 ul/well of SULFO-TAG anti-rabbit antibody (MSD, R32AB-1) was added at final concentration of 1 μg/ml diluted in 1% Blocking buffer and shaken for 1 hour at RT, 600 rpm. The MSD plate was washed three times with 150 uL/well of TBST and 150 ul/well of 2× MSD reading buffer diluted from 4× (MSD, R92TC-2) with water was added. Lastly, the MSD instrument was read.
The letter codes for SMARCA2 degradation potency (DC50) include: A (<10 nM), B (10-50 nM), C (>50-100 nM), and D (>100 nM). The letter codes for the percentage of SMARCA degradation after 24 hours (Dmax %) include: A (>90% degradation), B (>70-90% degradation), C (50-70% degradation), and D (<50% degradation).

SMARCA2 [2] = biological target: T1, SMARCA2; test: SMARCA2 Western blot degradation in MV4-11 cells; set-up: SMARCA2/SMARCA4 protein degradation selectivity in MV4-11 cells; endogenous in cells; host or cells: MV4-11; settings: for Dmax: MV4-11, MV4-11 cells, read-out: SMARCA2 MSD MV411 degradation 24 h: average Dmax %; for Dmax / DC50 / SMARCA2 MSD MV411 degradation 24 h: average Dmax %: 24 h; for DC50 / Selectivity in MV411 / SMARCA2 MSD MV411 degradation 24 h: average Dmax %: MV4-11 cells; for DC50: read-out: SMARCA2 MSD MV411 degradation 24 h: Mean external-Abs DC50; for Selectivity in MV411: SMARCA2/4 selectivity
SMARCA4 = biological target: T2, SMARCA4 (Homo sapiens, UniProt P51532); test: SMARCA4 Western blot degradation in MV4-11 cells; settings: for Dmax: MV4-11, MV4-11 cells, read-out: SMARCA4 MSD MV411 degradation 24 h: average Dmax %; for Dmax / DC50: 24 h; for DC50 / SMARCA4 MSD MV411 degradation 24 h: average Dmax %: MV4-11 cells; for DC50: read-out: SMARCA4 MSD MV411 degradation 24 h: Mean external-Abs DC50
T2 construct: SMARCA2/SMARCA4 protein degradation selectivity in MV4-11 cells; endogenous in cells; host or cells: MV4-11
T2 sequence (P51532 whole entry): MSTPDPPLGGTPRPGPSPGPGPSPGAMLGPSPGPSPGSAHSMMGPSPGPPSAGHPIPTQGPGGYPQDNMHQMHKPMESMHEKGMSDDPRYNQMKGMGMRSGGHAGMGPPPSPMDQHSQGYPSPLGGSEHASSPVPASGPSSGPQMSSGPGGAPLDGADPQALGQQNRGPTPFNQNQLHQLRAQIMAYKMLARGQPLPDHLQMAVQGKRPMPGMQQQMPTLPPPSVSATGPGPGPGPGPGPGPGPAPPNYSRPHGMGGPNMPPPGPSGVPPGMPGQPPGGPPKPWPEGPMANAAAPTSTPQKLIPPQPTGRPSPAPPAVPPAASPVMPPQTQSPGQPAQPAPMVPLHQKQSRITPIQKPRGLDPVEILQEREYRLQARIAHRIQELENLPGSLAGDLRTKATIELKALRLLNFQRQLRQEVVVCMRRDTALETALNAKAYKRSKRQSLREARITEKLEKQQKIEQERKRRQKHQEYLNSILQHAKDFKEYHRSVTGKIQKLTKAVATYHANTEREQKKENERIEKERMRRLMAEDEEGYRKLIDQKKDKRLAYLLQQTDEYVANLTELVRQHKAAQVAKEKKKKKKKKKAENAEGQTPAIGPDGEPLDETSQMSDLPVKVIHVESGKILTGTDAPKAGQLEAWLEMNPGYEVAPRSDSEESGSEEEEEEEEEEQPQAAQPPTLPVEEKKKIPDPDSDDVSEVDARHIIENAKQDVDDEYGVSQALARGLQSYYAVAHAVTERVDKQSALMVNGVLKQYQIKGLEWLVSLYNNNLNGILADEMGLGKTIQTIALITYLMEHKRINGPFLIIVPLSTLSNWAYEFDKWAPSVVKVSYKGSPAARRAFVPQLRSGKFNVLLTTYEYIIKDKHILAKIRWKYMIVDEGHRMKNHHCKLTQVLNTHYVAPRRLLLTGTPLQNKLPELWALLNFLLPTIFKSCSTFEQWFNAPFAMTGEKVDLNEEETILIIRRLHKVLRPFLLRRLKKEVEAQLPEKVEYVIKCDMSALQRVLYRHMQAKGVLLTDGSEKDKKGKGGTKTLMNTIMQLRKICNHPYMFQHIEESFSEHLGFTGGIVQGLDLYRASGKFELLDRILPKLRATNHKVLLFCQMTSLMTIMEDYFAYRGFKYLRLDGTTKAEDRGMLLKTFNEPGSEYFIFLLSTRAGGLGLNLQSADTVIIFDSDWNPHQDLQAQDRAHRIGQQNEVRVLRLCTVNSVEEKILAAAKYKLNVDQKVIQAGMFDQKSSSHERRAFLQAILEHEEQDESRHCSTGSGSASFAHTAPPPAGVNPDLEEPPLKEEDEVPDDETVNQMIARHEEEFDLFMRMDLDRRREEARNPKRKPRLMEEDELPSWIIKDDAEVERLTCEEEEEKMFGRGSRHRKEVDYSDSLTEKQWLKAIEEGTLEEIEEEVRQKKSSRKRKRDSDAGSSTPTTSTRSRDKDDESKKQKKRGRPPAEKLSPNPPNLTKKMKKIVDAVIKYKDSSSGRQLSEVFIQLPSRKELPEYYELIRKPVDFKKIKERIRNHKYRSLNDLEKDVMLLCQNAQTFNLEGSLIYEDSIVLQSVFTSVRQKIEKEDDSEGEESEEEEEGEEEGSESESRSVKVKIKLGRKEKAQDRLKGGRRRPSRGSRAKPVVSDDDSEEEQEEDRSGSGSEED
Outline: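 24 h compound exposure, MV4-11; RIPA lysates → SDS-PAGE → NC membrane; anti-SMARCA2/BRM, anti-BRG1, β-actin loading control; LI-COR fluorescence read. DC50 and Dmax at 24 h reported as letter bins.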

## Cc1ncsc1-c1ccc(CNC(=O)[C@@H]2C[C@@H](O)CN2C(=O)C(c2cc(N3CC4(CC(N5CCC(c6cnc(N7CCc8[nH]c9nnc(-c%10ccccc%10O)cc9c8[C@H]7C)nc6)CC5)C4)C3)no2)C(C)C)cc1 (single isomer, unassigned) [I-10]
SMARCA2 [1]
  Dmax: > 90%
  DC50: 10 to 50 nM
SMARCA2 [2]
  Dmax: > 90%
  DC50: < 1 nM
  Selectivity in MV411: D (D (<10 fold))
SMARCA4
  Dmax: > 90%
  DC50: 1 to 10 nM

## Cc1ncsc1-c1ccc(CNC(=O)[C@@H]2C[C@@H](O)CN2C(=O)C(c2cc(N3CCC4(CC3)CC(N3CCC(c5cnc(N6CCc7[nH]c8nnc(-c9ccccc9O)cc8c7[C@@H]6C)nc5)CC3)C4)no2)C(C)C)cc1 (single isomer, unassigned) [I-12]
SMARCA2 [1]
  Dmax: 70 to 90%
  DC50: 50 to 100 nM
SMARCA2 [2]
  Dmax: 70 to 90%
  DC50: 10 to 100 nM
  Selectivity in MV411: D (D (<10 fold))
SMARCA4
  Dmax: > 90%
  DC50: 10 to 100 nM

## Cc1ncsc1-c1ccc(CNC(=O)[C@@H]2C[C@@H](O)CN2C(=O)C(c2cc(N3CC4(CCC(N5CCC(c6cnc(N7CCc8[nH]c9nnc(-c%10ccccc%10O)cc9c8[C@H]7C)nc6)CC5)CC4)C3)no2)C(C)C)cc1 (single isomer, unassigned) [I-14]
SMARCA2 [1]
  Dmax: 70 to 90%
  DC50: < 10 nM
SMARCA2 [2]
  Dmax: > 90%
  DC50: < 1 nM
  Selectivity in MV411: D (D (<10 fold))
SMARCA4
  Dmax: > 90%
  DC50: 1 to 10 nM

## Cc1ncsc1-c1ccc(CNC(=O)[C@@H]2C[C@@H](O)CN2C(=O)C(c2cc(OC[C@H]3CC[C@H](N4CCC(c5cnc(N6CCc7[nH]c8nnc(-c9ccccc9O)cc8c7[C@@H]6C)nc5)CC4)CC3)no2)C(C)C)cc1 (single isomer, unassigned) [I-15]
SMARCA2 [1]
  Dmax: > 90%
  DC50: 10 to 50 nM
SMARCA2 [2]
  Dmax: > 90%
  DC50: 1 to 10 nM
  Selectivity in MV411: C (C (10-100 fold))
SMARCA4
  Dmax: > 90%
  DC50: 10 to 100 nM

## Cc1ncsc1-c1ccc(CNC(=O)[C@@H]2C[C@@H](O)CN2C(=O)C(c2cc(OC[C@H]3CC[C@@H](N4CCC(c5cnc(N6CCc7[nH]c8nnc(-c9ccccc9O)cc8c7[C@@H]6C)nc5)CC4)CC3)no2)C(C)C)cc1 (single isomer, unassigned) [I-16]
SMARCA2 [1]
  Dmax: 70 to 90%
  DC50: 50 to 100 nM
SMARCA2 [2]
  Dmax: > 90%
  DC50: 1 to 10 nM
  Selectivity in MV411: D (D (<10 fold))
SMARCA4
  Dmax: 70 to 90%
  DC50: 10 to 100 nM

## C[C@H](NC(=O)[C@@H]1C[C@@H](O)CN1C(=O)[C@@H](NC(=O)[C@H]1CCC2(CC1)C[C@H](N1CCC(c3cnc(N4CCN5c6cc(-c7ccccc7O)nnc6NC[C@H]5C4)nc3)CC1)C2)C(C)(C)C)c1ccc(-c2ccnn2C)cc1 (single isomer, unassigned) [I-21]
SMARCA2 [1]
  Dmax: > 90%
  DC50: 10 to 50 nM
SMARCA2 [2]
  Dmax: > 90%
  DC50: < 1 nM
  Selectivity in MV411: C (C (10-100 fold))
SMARCA4
  Dmax: > 90%
  DC50: 1 to 10 nM

## C[C@H](NC(=O)[C@@H]1C[C@@H](O)CN1C(=O)[C@@H](NC(=O)[C@H]1CCC2(CC1)C[C@H](N1CCC(c3cnc(N4CCN5c6cc(-c7ccccc7O)nnc6NC[C@H]5C4)nc3)CC1)C2)C(C)(C)C)c1ccc(-c2ccnn2C)cc1 (single isomer, unassigned) [I-22]
SMARCA2 [1]
  SMARCA2 MSD A549 degradation 24 h: Average Dmax %: A (A (>90% degradation))
  DC50: 10 to 50 nM
SMARCA2 [2]
  SMARCA2 MSD MV411 degradation 24 h: average Dmax %: A (A (>90% degradation))
  DC50: < 1 nM
  Selectivity in MV411: C (C (10-100 fold))
SMARCA4
  SMARCA4 MSD MV411 degradation 24 h: average Dmax %: B (B (>70-90% degradation))
  DC50: 10 to 100 nM

## Cc1ncsc1-c1ccc(CNC(=O)[C@@H]2C[C@@H](O)CN2C(=O)[C@@H](NC(=O)[C@H]2CC3(C2)C[C@H](N2CCC(c4ccnc(N5CCN6c7cc(-c8ccccc8O)nnc7NC[C@H]6C5)n4)CC2)C3)C(C)(C)C)cc1 (single isomer, unassigned) [I-27]
SMARCA2 [1]
  SMARCA2 MSD A549 degradation 24 h: Average Dmax %: B (B (>70-90% degradation))
  DC50: 10 to 50 nM
SMARCA2 [2]
  SMARCA2 MSD MV411 degradation 24 h: average Dmax %: A (A (>90% degradation))
  DC50: 1 to 10 nM
  Selectivity in MV411: A (A (>500 fold))
SMARCA4
  SMARCA4 MSD MV411 degradation 24 h: average Dmax %: D (D (<50% degradation))
  DC50: > 100 nM

## Cc1ncsc1-c1ccc(CNC(=O)[C@@H]2C[C@@H](O)CN2C(=O)[C@@H](NC(=O)[C@H]2CC3(C2)C[C@H](N2CCC(N4CCC(c5ccc6[nH]c7nnc(-c8ccccc8O)cc7c6c5)CC4)CC2)C3)C(C)(C)C)cc1 (single isomer, unassigned) [I-28]
SMARCA2 [1]
  Dmax: 70 to 90%
  DC50: 50 to 100 nM
SMARCA2 [2]
  Dmax: 50 to 70%
  DC50: 10 to 100 nM
  Selectivity in MV411: C (C (10-100 fold))
SMARCA4
  Dmax: < 50%
  DC50: > 100 nM

## Cc1ncsc1-c1ccc(CNC(=O)[C@@H]2C[C@@H](O)CN2C(=O)[C@@H](NC(=O)[C@H]2CC3(C2)C[C@H](N2CCC(N4CCC(c5ccc6[nH]c7nnc(-c8ccccc8O)cc7c6c5)CC4)CC2)C3)C(C)(C)C)cc1 (single isomer, unassigned) [I-29]
SMARCA2 [1]
  SMARCA2 MSD A549 degradation 24 h: Average Dmax %: C (C (50-70% degradation))
  DC50: > 100 nM
SMARCA2 [2]
  SMARCA2 MSD MV411 degradation 24 h: average Dmax %: C (C (50-70% degradation))
  DC50: 10 to 100 nM
  Selectivity in MV411: B (B (>100-500 fold))
SMARCA4
  SMARCA4 MSD MV411 degradation 24 h: average Dmax %: D (D (<50% degradation))
  DC50: > 100 nM

## Cc1ncsc1-c1ccc(CNC(=O)[C@@H]2C[C@@H](O)CN2C(=O)[C@@H](NC(=O)C2(F)CC2)C(C)(C)C)c(O[C@H]2CC[C@H](N3CCC(c4cnc(N5CCc6[nH]c7nnc(-c8ccccc8O)cc7c6[C@H]5C)nc4)CC3)CC2)c1 (single isomer, unassigned) [I-30]
SMARCA2 [1]
  Dmax: > 90%
  DC50: < 10 nM
SMARCA2 [2]
  Dmax: > 90%
  DC50: < 1 nM
  Selectivity in MV411: D (D (<10 fold))
SMARCA4
  Dmax: > 90%
  DC50: < 1 nM

## Cc1ncsc1-c1ccc(CNC(=O)[C@@H]2C[C@@H](O)CN2C(=O)[C@@H](NC(=O)C2(F)CC2)C(C)(C)C)c(O[C@H]2CC[C@@H](N3CCC(c4cnc(N5CCc6[nH]c7nnc(-c8ccccc8O)cc7c6[C@H]5C)nc4)CC3)CC2)c1 (single isomer, unassigned) [I-31]
SMARCA2 [1]
  Dmax: > 90%
  DC50: 50 to 100 nM
SMARCA2 [2]
  Dmax: 70 to 90%
  DC50: 10 to 100 nM
  Selectivity in MV411: B (B (>100-500 fold))
SMARCA4
  Dmax: 50 to 70%
  DC50: > 100 nM

## Cc1ncsc1-c1ccc(CNC(=O)[C@@H]2C[C@@H](O)CN2C(=O)[C@@H](NC(=O)C2(F)CC2)C(C)(C)C)c(OCCN2CCC(c3cnc(N4CCN5c6cc(-c7ccccc7O)nnc6NC[C@H]5C4)nc3)CC2)c1 (single isomer, unassigned) [I-32]
SMARCA2 [1]
  Dmax: > 90%
  DC50: < 10 nM
SMARCA2 [2]
  Dmax: > 90%
  DC50: < 1 nM
  Selectivity in MV411: C (C (10-100 fold))
SMARCA4
  Dmax: > 90%
  DC50: 1 to 10 nM

## Cc1ncsc1-c1ccc(CNC(=O)[C@@H]2C[C@@H](O)CN2C(=O)[C@@H](NC(=O)C2(F)CC2)C(C)(C)C)c(O[C@H]2CC[C@H](N3CCC(c4cnc(N5CCc6[nH]c7nnc(-c8ccccc8O)cc7c6[C@@H]5C)nc4)CC3)CC2)c1 (single isomer, unassigned) [I-33]
SMARCA2 [1]
  Dmax: 50 to 70%
  DC50: > 100 nM
SMARCA2 [2]
  Dmax: 50 to 70%
  DC50: 10 to 100 nM
  Selectivity in MV411: C (C (10-100 fold))
SMARCA4
  Dmax: < 50%
  DC50: > 100 nM
